Data taken from paper PMC4078884 (Chemical science (Royal Society of Chemistry : 2010), 2014).

What was measured:
EcIspG = biological target: T1, EcIspG (Escherichia coli, UniProt P62620); experiment: CW-EPR; format: binding; conditions: 80 eq dithionite, 8 K
T1 sequence (P62620 1-372): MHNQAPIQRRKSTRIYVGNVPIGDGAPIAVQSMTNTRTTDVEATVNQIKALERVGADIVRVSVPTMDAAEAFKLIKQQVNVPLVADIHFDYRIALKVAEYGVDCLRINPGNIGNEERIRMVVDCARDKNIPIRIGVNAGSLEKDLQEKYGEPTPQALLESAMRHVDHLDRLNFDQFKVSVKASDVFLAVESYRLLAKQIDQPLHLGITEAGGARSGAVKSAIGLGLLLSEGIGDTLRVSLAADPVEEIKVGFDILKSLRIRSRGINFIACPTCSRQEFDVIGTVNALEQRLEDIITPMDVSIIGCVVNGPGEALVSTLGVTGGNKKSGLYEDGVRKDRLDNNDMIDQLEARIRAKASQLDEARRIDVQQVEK

PaIspG = biological target: T2, PaIspG (Pseudomonas aeruginosa, UniProt Q9HXJ4); experiment: CW-EPR; format: binding; conditions: 80 eq dithionite, 8 K
T2 sequence (Q9HXJ4 1-371): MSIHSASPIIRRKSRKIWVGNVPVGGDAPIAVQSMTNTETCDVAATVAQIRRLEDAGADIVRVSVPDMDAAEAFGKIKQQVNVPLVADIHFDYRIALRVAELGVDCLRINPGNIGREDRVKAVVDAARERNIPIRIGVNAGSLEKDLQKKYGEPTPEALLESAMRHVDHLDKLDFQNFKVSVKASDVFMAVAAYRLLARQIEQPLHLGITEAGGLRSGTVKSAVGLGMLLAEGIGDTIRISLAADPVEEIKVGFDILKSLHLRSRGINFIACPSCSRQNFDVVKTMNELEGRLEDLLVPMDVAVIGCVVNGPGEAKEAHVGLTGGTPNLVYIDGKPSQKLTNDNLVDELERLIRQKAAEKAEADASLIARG

How did the CW-EPR (EcIspG) turn out when C/C(=C\COP(=O)(O)OP(=O)(O)O)CS [compound 8, thiolo-HMBPP] was run?
The CW-EPR was “E. coli (A, D)”.

And the CW-EPR (PaIspG)?
The CW-EPR was “P. aeruginosa (B, E)”.
